From US20230107642A1 (Erasca, Inc., priority 2020, published 2023)

These compounds were tested against T1, K-Ras G12C (Homo sapiens, UniProt P01116, G12C) (assay: CAF assay (% CAF; method in Example 7, not in this part)). Conditions: 10 uM compound, 1 h incubation.
T1 construct: This protein contained 188 amino acids in total, including an N-terminal 6-Histidine tag; made in house; host or cells: E. coli BL21
Assay type: binding

Row | Structure (SMILES) | % CAF @ 10 uM, 1h
1 | C=CC(=O)N1CCN(c2nc(=O)n3c4c(c(-c5cc(Cl)c(F)cc5F)c(C(F)(F)F)cc24)SC[C@H]3COCOC)[C@@H](C)C1 [Example 470, (3R)-7-((S)-4-acryloyl-2-methylpiperazin-1-yl)-10-(5-chloro-2,4-difluorophenyl)-3-((methoxymethoxy)methyl)-9-(trifluoromethyl)-2H-[1,4]thiazino[2,3,4-ij]quinazolin-5(3H)-one] | 35%
2 | C=CC(=O)N1CCN(c2nc(=O)n3c4c(c(-c5ccc(F)cc5F)c(C(F)(F)F)cc24)SC[C@@H]3COCOC)[C@@H](C)C1 (atropisomer, axis not shown) [Example 549, (3S,10S)-7-((S)-4-acryloyl-2-methylpiperazin-1-yl)-10-(2,4-difluorophenyl)-3-((methoxymethoxy)methyl)-9-(trifluoromethyl)-2H-[1,4]thiazino[2,3,4-ij]quinazolin-5(3H)-one] | 80.2%
3 | C=CC(=O)N1[C@H](C)CN(c2nc(=O)n3c4c(c(-c5cc(Cl)c(F)cc5F)c(C(F)(F)F)cc24)SC[C@@H]3COC)C[C@@H]1C (atropisomer, axis not shown) [Example 563, (3S,10R)-7-((3S,5R)-4-acryloyl-3,5-dimethylpiperazin-1-yl)-10-(5-chloro-2,4-difluorophenyl)-3-(methoxymethyl)-9-(trifluoromethyl)-2,3-dihydro-5H-[1,4]thiazino[2,3,4-ij]quinazolin-5-one] | 93.9%
4 | C=CC(=O)N1CCN(c2nc(=O)n3c4c(c(-c5ccc(F)cc5)c(C(F)(F)F)cc24)SC[C@@H](OC)C3)[C@@H](C)C1 [Example 532, (S)-8-((S)-4-acryloyl-2-methylpiperazin-1-yl)-11-(4-fluorophenyl)-3-methoxy-10-(trifluoromethyl)-3,4-dihydro-2H,6H-[1,4]thiazepino[2,3,4-ij]quinazolin-6-one] | 97%
5 | C=CC(=O)N1CCN(c2nc(=O)n3c4c(c(-c5ccc(F)cc5)c(C(F)(F)F)cc24)SC[C@@H]3COCOC)[C@@H](C)C1 [Example 516, (S)-7-((S)-4-acryloyl-2-methylpiperazin-1-yl)-10-(4-fluorophenyl)-3-((methoxymethoxy)methyl)-9-(trifluoromethyl)-2H-[1,4]thiazino[2,3,4-ij]quinazolin-5(3H)-one] | 74.4%
6 | C=CC(=O)N1CCN(c2nc(=O)n3c4c(c(-c5cc(Cl)c(F)cc5F)c(C(F)(F)F)cc24)SC[C@@H](OC)C3)CC1 [Example 582, (3S)-8-(4-acryloylpiperazin-1-yl)-11-(5-chloro-2,4-difluorophenyl)-3-methoxy-10-(trifluoromethyl)-3,4-dihydro-2H,6H-[1,4]thiazepino[2,3,4-ij]quinazolin-6-one] | 88%
7 | C=CC(=O)N1CCN(c2nc(=O)n3c4c(c(-c5cc(Cl)c(F)cc5F)c(Cl)cc24)SC[C@@H](OC)C3)[C@@H](C)C1 [Example 529, (3S)-8-((S)-4-acryloyl-2-methylpiperazin-1-yl)-10-chloro-11-(5-chloro-2,4-difluorophenyl)-3-methoxy-3,4-dihydro-2H,6H-[1,4]thiazepino[2,3,4-ij]quinazolin-6-one] | 95%
8 | C=CC(=O)N1CCN(c2nc(=O)n3c4c(c(-c5ccc(F)cc5F)c(Cl)cc24)SC[C@@H]3CC2CCN(CC)CC2)[C@@H](C)C1 [Example 413, (3S)-7-((S)-4-acryloyl-2-methylpiperazin-1-yl)-9-chloro-10-(2,4-difluorophenyl)-3-((1-ethylpiperidin-4-yl)methyl)-2H-[1,4]thiazino[2,3,4-ij]quinazolin-5(3H)-one] | 86.6%
9 | C=CC(=O)N1CCN(c2nc(=O)n3c4c(c(-c5ccc(F)cc5F)c(Cl)cc24)SC[C@@H]3CC2CCN(C)CC2)[C@@H](C)C1 [Example 423, (3S)-7-((S)-4-acryloyl-2-methylpiperazin-1-yl)-9-chloro-10-(2,4-difluorophenyl)-3-((1-methylpiperidin-4-yl)methyl)-2H-[1,4]thiazino[2,3,4-ij]quinazolin-5(3H)-one] | 34.1%
10 | C=CC(=O)N1CCN(c2nc(=O)n3c4c(c(-c5ccc(F)cc5F)c(C(F)(F)F)cc24)S(=O)(=O)C[C@@H]3COC)[C@@H](C)C1 [Example 436, (3S)-7-((S)-4-acryloyl-2-methylpiperazin-1-yl)-10-(2,4-difluorophenyl)-3-(methoxymethyl)-9-(trifluoromethyl)-2H-[1,4]thiazino[2,3,4-ij]quinazolin-5(3H)-one 1,1-dioxide] | 72.5%
11 | C=CC(=O)N1CCN(c2nc(=O)n3c4c(c(-c5cc(F)c(F)cc5F)c(Cl)cc24)SC[C@@H]3CN2CCN(CC(F)F)CC2)[C@@H](C)C1 [Example 480, (3S)-7-((S)-4-acryloyl-2-methylpiperazin-1-yl)-9-chloro-3-((4-(2,2-difluoroethyl)piperazin-1-yl)methyl)-10-(2,4,5-trifluorophenyl)-2H-[1,4]thiazino[2,3,4-ij]quinazolin-5(3H)-one] | 61.2%
12 | C=CC(=O)N1CCN(c2nc(=O)n3c4c(c(-c5ccc(F)cc5)c(Cl)cc24)SC[C@@H](OC)C3)CC1 [Example 536, (S)-8-(4-acryloylpiperazin-1-yl)-10-chloro-11-(4-fluorophenyl)-3-methoxy-3,4-dihydro-2H,6H-[1,4]thiazepino[2,3,4-ij]quinazolin-6-one] | 97%
13 | C=CC(=O)N1C[C@H](C)N(c2nc(=O)n3c4c(c(-c5ccc(F)cc5F)c(C(F)(F)F)cc24)SC[C@@H]3COC)C[C@H]1C (atropisomer, axis not shown) [Example 509, (3S,10R)-7-((2S,5R)-4-acryloyl-2,5-dimethylpiperazin-1-yl)-10-(2,4-difluorophenyl)-3-(methoxymethyl)-9-(trifluoromethyl)-2,3-dihydro-5H-[1,4]thiazino[2,3,4-ij]quinazolin-5-one] | 96.5%
14 | C=CC(=O)N1CCN(c2nc(=O)n3c4c(c(-c5cc(Cl)c(F)cc5F)c(C(F)(F)F)cc24)SC[C@@H]3COC)CC1 [Example 572, (3S)-7-(4-acryloylpiperazin-1-yl)-10-(5-chloro-2,4-difluorophenyl)-3-(methoxymethyl)-9-(trifluoromethyl)-2H-[1,4]thiazino[2,3,4-ij]quinazolin-5(3H)-one] | 93.6%
15 | C=CC(=O)N1CCN(c2nc(=O)n3c4c(c(-c5cc(F)c(F)cc5F)c(Cl)cc24)SC[C@@H]3CN2CCN(CC)CC2)[C@@H](C)C1 [Example 416, (3S)-7-((S)-4-acryloyl-2-methylpiperazin-1-yl)-9-chloro-3-((4-ethylpiperazin-1-yl)methyl)-10-(2,4,5-trifluorophenyl)-2H-[1,4]thiazino[2,3,4-ij]quinazolin-5(3H)-one] | 91.2%
16 | C=CC(=O)N1C[C@H](C)N(c2nc(=O)n3c4c(c(-c5cc(Cl)c(F)cc5F)c(C(F)(F)F)cc24)SC[C@@H]3COC)C[C@H]1C (atropisomer, axis not shown) [Example 545, (3S,10R)-7-((2S,5R)-4-acryloyl-2,5-dimethylpiperazin-1-yl)-10-(5-chloro-2,4-difluorophenyl)-3-(methoxymethyl)-9-(trifluoromethyl)-2,3-dihydro-5H-[1,4]thiazino[2,3,4-ij]quinazolin-5-one] | 94.1%

Same assay, conditions: 10 uM, 1 h; Table 3

Row | Structure (SMILES) | % CAF @ 10 uM, 1h
17 | C=CC(=O)N1CCN(c2nc(=O)n3c4c(c(-c5ccc(F)cc5F)c(Cl)cc24)SCC3)[C@@H](CN2CCC2)C1 [Example 169, 7-((S)-4-acryloyl-2-(azetidin-1-ylmethyl)piperazin-1-yl)-9-chloro-10-(2,4-difluorophenyl)-2,3-dihydro-5H-[1,4]thiazino[2,3,4-ij]quinazolin-5-one] | 23.3%
18 | C=CC(=O)N1CCN(c2nc(=O)n3c4c(c(-c5cccc6c5CC(=O)N6)c(Cl)cc24)SCC3)[C@@H](C)C1 [Example 105, 7-((S)-4-acryloyl-2-methylpiperazin-1-yl)-9-chloro-10-(2-oxoindolin-4-yl)-2,3-dihydro-5H-[1,4]thiazino[2,3,4-ij]quinazolin-5-one] | 18.9%
19 | C=CC(=O)N1CCN(c2nc(=O)n3c4c(c(-c5c(F)cc(F)cc5F)c(Cl)cc24)SC[C@H]3CCCN2C[C@@H]3C[C@H]2CO3)[C@@H](C)C1 [Example 110, (R)-3-(3-((1S,4S)-2-oxa-5-azabicyclo[2.2.1]heptan-5-yl)propyl)-7-((S)-4-acryloyl-2-methylpiperazin-1-yl)-9-chloro-10-(2,4,6-trifluorophenyl)-2,3-dihydro-5H-[1,4]thiazino[2,3,4-ij]quinazolin-5-one] | 96.6%
20 | C=CC(=O)N1CCN(c2nc(=O)n3c4c(c(-c5cc(Cl)ccc5F)c(Cl)cc24)SCC3)[C@@H](C)C1 [Example 175, 7-((S)-4-acryloyl-2-methylpiperazin-1-yl)-9-chloro-10-(5-chloro-2-fluorophenyl)-2,3-dihydro-5H-[1,4]thiazino[2,3,4-ij]quinazolin-5-one] | 79.8%
21 | C=CC(=O)N1CCN(c2nc(=O)n3c4c(c(-c5cccc6cnn(C)c56)c(Cl)cc24)SCC3)[C@@H](C)C1 (atropisomer, axis not shown) [Example 107, (S)-7-((S)-4-acryloyl-2-methylpiperazin-1-yl)-9-chloro-10-(1-methyl-1H-indazol-7-yl)-2,3-dihydro-5H-[1,4]thiazino[2,3,4-ij]quinazolin-5-one] | 0%
22 | C=C(F)C(=O)N1CCN(c2nc(=O)n3c4c(c(-c5ccc(F)cc5F)c(Cl)cc24)SCC3)[C@@H](C)C1 [Example 113, 9-chloro-10-(2,4-difluorophenyl)-7-((S)-4-(2-fluoroacryloyl)-2-methylpiperazin-1-yl)-2,3-dihydro-5H-[1,4]thiazino[2,3,4-ij]quinazolin-5-one] | 21.7%
